We go through 2 molecules from publication PMC12381781, “Structural and functional insights into the selective inhibition of mutant tau aggregation by purpurin and oleocanthal in frontotemporal dementia” (Protein Science : A Publication of the Protein Society, 2025).

Like-named read-outs stand apart in the source and are kept apart here.

Assay [1] deals with T1, R2R3 (V287I) tau peptide (Homo sapiens, UniProt P10636, V604I). The experiment in a line: SPR titration cycle kinetics, immobilized R2R3 (V287I) peptide. The format is binding. Here is the method: SPR experiments were conducted using the Sierra® SPR‐24 Pro system (Bruker Daltonics, Bremen, Germany), featuring a gold‐coated microfluidic array (24 detection spots, 3 × 8 format). Data acquisition and kinetic analysis were performed using SPR Analyzer 4 software.
T1 sequence (P10636 592-653 V604I): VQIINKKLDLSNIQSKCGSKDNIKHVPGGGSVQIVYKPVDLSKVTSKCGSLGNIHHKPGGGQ
All experiments were conducted at 25°C using PBS (pH 7.4) supplemented with 0.05% Tween‐20 and 5% DMSO as the running buffer to ensure assay reproducibility. Assay components, including 96‐well microtiter plates (Part # 1862984; Burker) and Microplate and Reservoir Sealer (Part #1862985; Burker), were used for sample handling and were compatible with the Sierra SPR®‐24 Pro system (Bruker Daltonics, Billerica, MA, USA).
WT and mutant (P301L, V287I, and N279K) tau peptides were dissolved in 10 mM sodium acetate buffer (pH 5.0; Burker) and immobilized onto High‐Capacity Amine Sensor Surfaces (Part #1862614; Bruker) using the Amine Coupling Kit (Part #1862634; Bruker). The sensor surface was preconditioned with a Surface Elution Buffer (Part #1862656; Bruker Daltonics) and 0.1M HCl to remove contaminants and improve binding specificity.
The surface was activated using 400 mM 1‐ethyl‐3‐(3‐dimethylaminopropyl) carbodiimide (Burker) and 50 mM N‐hydroxysuccinimide (Burker), enabling covalent attachment of tau peptides. Unreacted binding sites were blocked with 1M ethanolamine‐HCl (pH 8.5; Burker) to minimize nonspecific interactions. For each experiment, specific sensor spots (A/B/C) on channels 1–8 were designated for tau‐analyte interactions, with corresponding reference spots on the same channel for baseline correction. DMSO calibration solutions (4.6%, 4.8%, 5%, 5.2%, and 5.4%) were prepared for double referencing to compensate for DMSO solvent effects.
PUR and OLC were prepared in PBS (pH 7.4) supplemented with 0.05% Tween‐20 and 5% DMSO. Compound interactions with tau peptides were pre‐screened using a concentration range of 1–100 μM, and subsequent binding kinetics were evaluated at optimized concentrations. For kinetic studies, PUR was tested at […], while OLC was tested at 25–100 μM using two‐fold serial dilutions. Each analyte was sequentially injected, and association and dissociation phases were monitored to determine kinetic parameters.
SPR binding kinetics were assessed using the titration cycle kinetics (TCK) assay, which included consecutive association phases followed by a single dissociation phase. Pre‐assay simulations using the Kinetic Simulator feature of SPR Analyzer 4 software were used to optimize analyte concentration ranges and association/dissociation times. A reference blank injection was included for double referencing, and a single dissociation curve was recorded for the highest analyte concentration.
Sensorgrams were analyzed using the Kinetic Titration model, which was integrated into the global kinetic fitting model of the SPR Analyzer 4 software. This approach allowed for baseline correction and improved the reliability of kinetic parameters, including the Kon, Koff, and KD.
TCK‐derived kinetic parameters were compared across multiple runs and confirmed using Multi Injection Cycle Kinetics to validate reproducibility and accuracy.

Assay [2] addresses T1, R2R3 (V287I) tau peptide. The experiment in a line: Atomic force microscopy of R2R3 (V287I) aggregates. In kind it is biochemical. The following applies: compound 10 μM, 48 h. The procedure: Aggregates collected after 48 h of aggregation were processed for AFM analysis as described previously (Annadurai, Malina, Malohlava, et al., [2022]).
Assay [3] addresses T2, preformed R2R3 (WT) fibrils (Homo sapiens, UniProt P10636).
T2 construct: Peptides spanning R2R3—including PHF6 and PHF6*; purchased ProteoGenix (Schiltigheim, France); host or cells: chemical synthesis (custom peptide)
The experiment in a line: Elongation of preformed R2R3 (WT) fibrils, ThT. The format is biochemical. To be noted: R2R3 WT pre-aggregated 24 h, compound 10 μM; for ThT-stained aggregates from post-treatment samples, confocal imaging: further 24 h. Here is the method:
(§1) Peptides were pre‐aggregated for 24 h with aggregation kinetics monitored by ThT fluorescence, after which 10 μM PUR or OLC was added, followed by an additional 24–30 h of incubation (Figure 4a). Aggregation kinetics was monitored by ThT fluorescence, and elongation was quantified as the AUC following compound addition, normalized to each replicate's maximum pre‐treatment fluorescence (Figure 4b). […] WT peptide fibril elongation was reduced to 15.5 ± 2.8% (PUR) and 45.2 ± 3.2% (OLC), and P301L peptide fibril elongation was limited to 31.8 ± 0.6% (PUR) and 85.6 ± 2.2% (OLC) (Figure 4b). Fluorescence microscopy imaging further confirmed the presence of reduced ThT‐positive aggregates following the addition of PUR and OLC (Figure S12). Similar inhibition trends, with PUR outperforming OLC, were also observed for V287I and N279K peptides (Figure S12).
FIGURE 4 Purpurin (PUR) and oleocanthal (OLC) inhibit elongation of preformed wild‐type (WT) and P301L tau fibrils. (a) The thioflavin T (ThT) fluorescence kinetics of pre‐aggregated R2R3 (WT and P301L) tau peptides treated with PUR or OLC (10 μM). Peptides were first allowed to aggregate for 24 h, followed by compound addition and continued incubation for an additional 24–30 h. Vertical dashed lines indicate the time point of compound addition. Curves are normalized to each replicate's maximum pre‐treatment ThT fluorescence. Source data are provided in the Data Availability Statement section. Mean ± SEM (n ≥ 3). (b) Aggregation levels post‐treatment, expressed as a percentage of control (untreated fibrils), calculated from the area under the curve after compound addition. Mean ± SEM (n ≥ 3). ***p < 0.001, **p < 0.01, one‐way ANOVA (Tukey's post hoc test).
Figure S12. Confocal imaging of ThT-stained aggregates from post-treatment samples in Figure 4. R2R3 (WT and P301L) tau peptides were incubated for 24 h to allow initial aggregation, followed by the addition of PUR or OLC (10 µM). After a further 24 h, reaction mixtures from compound-treated wells were collected, embedded in 0.05% low-melting agarose, and processed for imaging as described in Figure S11. […] Scale bar: 50 μm.

For assay [4], the system named is preformed R2R3 (V287I) fibrils. Put plainly: Elongation of preformed R2R3 (V287I) fibrils, ThT. In kind it is biochemical. The following applies: R2R3 V287I pre-aggregated 24 h, compound 10 μM. The procedure:
as §1
Figure S13. […] (a) ThT fluorescence kinetics of pre-aggregated R2R3 (V287I and N279K ) tau peptides treated with PUR or OLC (10 µM). Peptides were first allowed to aggregate for 24 h, followed by compound addition and continued incubation for an additional 24-30 h. […] Curves are normalized to each replicate’s maximum pre-treatment ThT fluorescence. […] (b) Aggregation levels post-treatment, expressed as a percentage of control (untreated fibrils), calculated from the AUC after compound addition. […]

T2 sequence (P10636 592-653 limits assumed): as the sequence (P10636 592-653 V604I) above, with I13V counted along it

For the molecule `C/C=C(/C=O)[C@@H](CC=O)CC(=O)OCCc1ccc(O)cc1` [OLC, oleocanthal], at R2R3 (V287I) tau peptide [1] (SPR, R2R3 V287I), the Kon turned out to be 42.24 M⁻¹ s⁻¹ and the koff (in general, the first-order rate constant of dissociation) was 8.69e-05 s⁻¹. Further, the Kd – broadly, the equilibrium constant for the complex coming apart – at R2R3 (V287I) tau peptide [1] (SPR, R2R3 V287I peptide immobilized, 25°C, PBS pH 7.4, read-out: KD) was determined as 2.06 µM. Further, on R2R3 (V287I) tau peptide [2], the “AFM morphology of aggregates” value is “no fibrillar or aggregated structures were detected”. Moreover, the “fibril elongation, aggregation post-treatment as percentage of control (AUC after compound addition)” value in assay [3] (further 24–30 h) was 45.2 ± 3.2%. Also, the “ThT-stained aggregates from post-treatment samples, confocal imaging” value in assay [3] is “either a complete absence or a marked reduction in ThT signal”. In addition, in assay [4], the “elongation of preformed fibrils” value was “inhibit the elongation”.

`O=C1c2ccccc2C(=O)c2c(O)c(O)cc(O)c21` [PUR, purpurin]: on R2R3 (V287I) tau peptide [1], binding was put at a Kd of 4.73 µM. On R2R3 (V287I) tau peptide [1] (SPR, R2R3 V287I), the kon – broadly, a measure of how fast the partners come together – is 42.1 M⁻¹ s⁻¹. Further, on R2R3 (V287I) tau peptide [1] (SPR, R2R3 V287I, read-out: Koff), the koff amounted to 0.000199 s⁻¹. At R2R3 (V287I) tau peptide [2], the “AFM morphology of aggregates” value is listed as “no fibrillar or aggregated structures were detected”. Moreover, the remaining activity at 10 µM in assay [3] (further 24–30 h, read-out: fibril elongation, aggregation post-treatment as percentage of control (AUC after compound addition)) is 15.5 ± 2.8%. Besides, in assay [3], the “ThT-stained aggregates from post-treatment samples, confocal imaging” value was “either a complete absence or a marked reduction in ThT signal”. In addition, the “elongation of preformed fibrils” value in assay [4] is given as “inhibit the elongation”.
